PubChem BioAssay (NCI)
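Interpolation was linear, between the two tested concentrations surrounding the appropriate level; five concentrations were tested over 48 hours in 96-well plates. At the TGI there is no net growth.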

Tests used:
Assay in all cases: NCI tumour cell line growth inhibition, 48 h
786-0 renal = tested on: 786-0 renal
A498 renal = tested on: A498 renal
A549 NSCLC = tested on: A549 NSCLC
ACHN renal = tested on: ACHN renal
CCRF-CEM leukemia = tested on: CCRF-CEM leukemia
COLO 205 colon = tested on: COLO 205 colon
DLD-1 colon = tested on: DLD-1 colon
DMS 114 small cell lung = tested on: DMS 114 small cell lung
DMS 273 small cell lung = tested on: DMS 273 small cell lung
EKVX NSCLC = tested on: EKVX NSCLC
HCC-2998 colon = tested on: HCC-2998 colon
HCT-116 colon = tested on: HCT-116 colon
HL-60(TB) leukemia = tested on: HL-60(TB) leukemia
HOP-92 NSCLC = tested on: HOP-92 NSCLC
HT29 colon = tested on: HT29 colon
IGROV1 ovarian = tested on: IGROV1 ovarian
K-562 leukemia = tested on: K-562 leukemia
KM12 colon = tested on: KM12 colon
KM20L2 colon = tested on: KM20L2 colon
LOX IMVI melanoma = tested on: LOX IMVI melanoma
LXFL 529 NSCLC = tested on: LXFL 529 NSCLC
M14 melanoma = tested on: M14 melanoma
M19-MEL melanoma = tested on: M19-MEL melanoma
MOLT-4 leukemia = tested on: MOLT-4 leukemia
NCI-H23 lung = tested on: NCI-H23 lung
NCI-H460 lung = tested on: NCI-H460 lung
NCI-H522 lung = tested on: NCI-H522 lung
OVCAR-3 ovarian = tested on: OVCAR-3 ovarian
OVCAR-4 ovarian = tested on: OVCAR-4 ovarian
OVCAR-5 ovarian = tested on: OVCAR-5 ovarian
OVCAR-8 ovarian = tested on: OVCAR-8 ovarian
RPMI-8226 leukemia = tested on: RPMI-8226 leukemia
RXF 393 renal = tested on: RXF 393 renal
SF-268 CNS = tested on: SF-268 CNS
SF-295 CNS = tested on: SF-295 CNS
SF-539 CNS = tested on: SF-539 CNS
SK-MEL-28 melanoma = tested on: SK-MEL-28 melanoma
SK-MEL-5 melanoma = tested on: SK-MEL-5 melanoma
SK-OV-3 ovarian = tested on: SK-OV-3 ovarian
SN12C renal = tested on: SN12C renal
SNB-19 CNS = tested on: SNB-19 CNS
SNB-75 CNS = tested on: SNB-75 CNS
SNB-78 CNS = tested on: SNB-78 CNS
SR leukemia = tested on: SR leukemia
SW-620 colon = tested on: SW-620 colon
TK-10 renal = tested on: TK-10 renal
U251 CNS = tested on: U251 CNS
UACC-257 melanoma = tested on: UACC-257 melanoma
UACC-62 melanoma = tested on: UACC-62 melanoma
UO-31 renal = tested on: UO-31 renal
CAKI-1 renal = tested on: CAKI-1 renal
HCT-15 colon = tested on: HCT-15 colon
HOP-62 NSCLC = tested on: HOP-62 NSCLC
MALME-3M melanoma = tested on: MALME-3M melanoma
SK-MEL-2 melanoma = tested on: SK-MEL-2 melanoma
NCI-H226 lung = tested on: NCI-H226 lung

Measured: TGI

O=c1[nH]c(=O)n(C2OC(CO)C(N(O)Cc3ccc(F)cc3)C2O)cc1Br (stereo not drawn)
> 100 µM: 786-0 renal | A498 renal | A549 NSCLC | ACHN renal | CCRF-CEM leukemia | COLO 205 colon | DLD-1 colon | DMS 114 small cell lung | DMS 273 small cell lung | EKVX NSCLC | HCC-2998 colon | HCT-116 colon | HL-60(TB) leukemia | HOP-92 NSCLC | HT29 colon | IGROV1 ovarian | K-562 leukemia | KM12 colon | KM20L2 colon | LOX IMVI melanoma | LXFL 529 NSCLC | M14 melanoma | M19-MEL melanoma | MOLT-4 leukemia | NCI-H23 lung | NCI-H460 lung | NCI-H522 lung | OVCAR-3 ovarian | OVCAR-4 ovarian | OVCAR-5 ovarian | OVCAR-8 ovarian | RPMI-8226 leukemia | RXF 393 renal | SF-268 CNS | SF-295 CNS | SF-539 CNS | SK-MEL-28 melanoma | SK-MEL-5 melanoma | SK-OV-3 ovarian | SN12C renal | SNB-19 CNS | SNB-75 CNS | SNB-78 CNS | SR leukemia | SW-620 colon | TK-10 renal | U251 CNS | UACC-257 melanoma | UACC-62 melanoma | UO-31 renal

O=C1NC(=O)C(C(=O)C(=O)Nc2cccc(C(F)(F)F)c2)C(=O)N1
> 100 µM: 786-0 renal | A498 renal | A549 NSCLC | ACHN renal | CAKI-1 renal | CCRF-CEM leukemia | COLO 205 colon | DLD-1 colon | DMS 114 small cell lung | EKVX NSCLC | HCC-2998 colon | HCT-116 colon | HCT-15 colon | HL-60(TB) leukemia | HOP-62 NSCLC | IGROV1 ovarian | K-562 leukemia | KM12 colon | KM20L2 colon | LOX IMVI melanoma | LXFL 529 NSCLC | M14 melanoma | M19-MEL melanoma | MALME-3M melanoma | MOLT-4 leukemia | NCI-H23 lung | NCI-H460 lung | NCI-H522 lung | OVCAR-3 ovarian | OVCAR-4 ovarian | OVCAR-5 ovarian | OVCAR-8 ovarian | RPMI-8226 leukemia | RXF 393 renal | SF-268 CNS | SF-539 CNS | SK-MEL-2 melanoma | SK-MEL-28 melanoma | SK-MEL-5 melanoma | SK-OV-3 ovarian | SNB-19 CNS | SNB-75 CNS | SNB-78 CNS | SW-620 colon | TK-10 renal | U251 CNS | UACC-257 melanoma | UACC-62 melanoma | UO-31 renal

COc1c(Br)cc(Br)c(OC)c1-c1ccc[nH]1
> 100 µM: 786-0 renal | A498 renal | A549 NSCLC | ACHN renal | CAKI-1 renal | CCRF-CEM leukemia | COLO 205 colon | DLD-1 colon | DMS 114 small cell lung | DMS 273 small cell lung | EKVX NSCLC | HCT-116 colon | HCT-15 colon | HL-60(TB) leukemia | HOP-62 NSCLC | HOP-92 NSCLC | HT29 colon | IGROV1 ovarian | K-562 leukemia | KM12 colon | LOX IMVI melanoma | LXFL 529 NSCLC | M14 melanoma | M19-MEL melanoma | MOLT-4 leukemia | NCI-H226 lung | NCI-H23 lung | NCI-H460 lung | NCI-H522 lung | OVCAR-3 ovarian | OVCAR-4 ovarian | OVCAR-5 ovarian | OVCAR-8 ovarian | RPMI-8226 leukemia | SF-268 CNS | SF-295 CNS | SF-539 CNS | SK-MEL-2 melanoma | SK-MEL-28 melanoma | SK-MEL-5 melanoma | SK-OV-3 ovarian | SNB-75 CNS | SNB-78 CNS | SW-620 colon | TK-10 renal | U251 CNS | UACC-257 melanoma | UACC-62 melanoma | UO-31 renal
